From patent EP1200395B1, “UREA DERIVATIVES AS INHIBITORS OF CCR-3 RECEPTOR” (KIRIN BEER KABUSHIKI KAISHA, priority 1999, dated 2001) come the findings set out here.

Experiment [1] deals with human-derived eosinophils. In words: Eotaxin-induced chemotaxis of cultured eosinophils. To be noted: 10.00 µM compound, human eotaxin 1 x 10^-9 M, 37°C for 1 hour; for inhibition at 10 µM: Eosinophil. The format is cell-based. How it is done:
The inhibitory activity of the compounds against eotaxin-mediated chemotaxis of human-derived eosinophils was determined assay described below. Eosinophils were prepared from culture of human cord blood mononuclear cells as described by Ohashi, H. et al., Int Arch Allergy Immunol. (1999) 118, 44-50. For the assay, eosinophils were resuspended at 1 x 10^7 cells/ml in assay medium (RPMI 1640 medium containing 0.1 % bovine serum albumin (BSA)). The chemotaxis assay was performed in a 24-well culture plate. Human eotaxin suspended in assay medium was added into wells at 1 x 10^-9 M with test compounds at various concentrations. For a positive control, eotaxin was added without a test compound, and for a negative control, neither eotaxin nor a test compound was added to the wells. Chemotaxicell (Kurabo Co., Ltd.) having 5 micrometers pore size were inserted into each well and 100 microliters of eosinophil suspension were added to the top chamber. The plates were incubated at 37°C for 1 hour. After incubation, migrated cells in lower wells were diluted and counted by particle size distribution analyzer (CDP-500, Sysmex Co., Ltd.).

The target of experiment [2] is T1, CCR-3 (Homo sapiens, UniProt P51677).
T1 sequence (P51677 1-355): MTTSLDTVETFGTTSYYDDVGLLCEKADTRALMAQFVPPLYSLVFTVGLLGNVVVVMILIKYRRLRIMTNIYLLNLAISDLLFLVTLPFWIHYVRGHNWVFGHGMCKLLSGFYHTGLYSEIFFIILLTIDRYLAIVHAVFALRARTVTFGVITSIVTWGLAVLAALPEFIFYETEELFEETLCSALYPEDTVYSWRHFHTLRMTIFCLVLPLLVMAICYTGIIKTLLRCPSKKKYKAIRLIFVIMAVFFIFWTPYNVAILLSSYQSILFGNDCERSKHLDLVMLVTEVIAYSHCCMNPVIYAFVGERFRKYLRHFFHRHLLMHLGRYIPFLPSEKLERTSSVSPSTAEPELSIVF
In words: Eotaxin-induced chemotaxis of CCR-3 transfectant cells (CCR3/U937). The format is cell-based. The settings on record: eotaxin 1 x 10^-9 M; for inhibition at 10 µM: U-937; for inhibition at 10 µM / Chemotaxis Assay 10 µM (inhibition %): 10 µM test compound; for CCR-3 Transfectant Chemotaxis Assay 6.25 µg/ml (inhibition %): 6.25 µg/ml test compound, CCR3/U937 cells (Table 3b). Also on record: expressed in transfected cells; host or cells: U937.

In experiment [3] the test system is collagen-induced arthritis. The experiment in a line: Type II collagen-induced arthritis in mice, clinical score. The settings on record: 20 mg/kg per day subcutaneously starting at 2nd immunization; versus control vehicle; Figure 1A/1B. It is filed as in vivo, Male DBA/1 mice.
The target in experiment [4] is T1, CCR-3. In words: Calcium mobilization assay (inhibition of eotaxin-induced intracellular calcium mobilization in CCR3/HEK293 cells). The format is cell-based. Also on record: expressed in transfected cells. The settings on record: 6.25 µg/ml test compound; eotaxin 10 nM; CCR3/HEK293 cells (Table 2a). How it is done: Compounds 93-162 used in this assay were synthesized by using the method described in Example 6.
CCR-3 transfectant cells (CCR3/HEK293) were isolated and resuspended with assay buffer (20 mM HEPES, 125 mM NaCl, 5 mM KCl; 0.5 mM glucose, 1 mM CaCl2, 1 mM MgCl2, 0.1 % BSA). After washing CCR3/HEK293 cells with assay buffer, cells were loaded with Fura-2/AM in assay buffer for 1 hour at room temperature. Cells were washed and resuspended with assay buffer at 5 x 10^6 cells/ml in assay buffer, and placed in a tissue culture plate (Falcon, no. 3296). Test compounds dissolved in DMSO were added to the wells, followed by eotaxin (10 nM at final concentration). Cells were excited at 340 nm and 380 nm in a fluorimeter (ARGUS50, FDSS2000, Hamamatsu Photonics) and the relative ratio of the fluorescence emitted at 510 nm was recorded. For a control, DMSO without a test compound was added. Intracellular calcium mobilization was calculated as described in Krogel C. et al. , FEBS Let. (1989) 243 , 41-46.

Each structure is given as a SMILES string.

In the case of `C[C@H](c1ccccc1)N(CCCNC(=O)Nc1ccc(Br)cc1)CCCC(=O)O` [Compound 61, 4-[[3-(4-Bromophenylureido)propyl][(1R)-1-phenylethyl]amino]-butanoic acid], the inhibition at 10 µM (in experiment [1]; on CCR-3 [2] (CCR3/U937 cells (Table 3a))) was 100% in each case.

As for `CCN(CCCNC(=O)Nc1ccccc1)CCc1ccc(Cl)cc1` [Compound 1, N-Phenylcarbamoyl-N'-[2-(4-chlorophenyl)ethyl]-N'-ethyl-1,3-diaminopropane], the inhibition at 10 µM (in experiment [1]; against CCR-3 [2] (CCR3/U937 cells (Table 3a))) was 100% throughout.

As to `CC[N+](CC)(CCCNC(=O)Nc1ccc(Br)cc1)CCc1ccc(Cl)cc1` [Compound 92, [3-(4-Bromophenylureido)propyl][2-(4-chlorophenyl)ethyl]-diethylammonium iodide], the inhibition at 10 µM (in experiment [1]; against CCR-3 [2] (CCR3/U937 cells (Table 3c))) was 100% throughout.

Regarding `O=C(O)CCCN(CCCNC(=O)Nc1ccc(Cl)c(Cl)c1)C1CCCc2ccccc21` (stereo not drawn) [Compound 65, 4-[[3-(3,4-Dichlorophenylureido)propyl](1,2,3,4-tetrahydro-1-naphthyl)amino]butanoic acid], the inhibition at 10 µM (in experiment [1]; on CCR-3 [2] (CCR3/U937 cells (Table 3a))) was 100% in each case.

In the case of `CC[N+](CC)(CCCNC(=O)Nc1ccccc1)CCc1ccc(Cl)cc1` [Compound 91, [3-(Phenylureido)propyl][2-(4-chlorophenyl)ethyl]-diethylammonium iodide], the inhibition at 10 µM (in experiment [1]; on CCR-3 [2] (CCR3/U937 cells (Table 3c))) was 100% each time.

On to `O=C(O)CCCN(CCCNC(=O)Nc1ccc(Br)cc1)C1CCCc2ccccc21` (stereo not drawn) [Compound 60, 4-[[3-(4-Bromophenylureido)propyl](1,2,3,4-tetrahydro-1-naphthyl)amino]butanoic acid], for which the inhibition at 10 µM in experiment [1] was 100%; on CCR-3 [2] (CCR3/U937 cells (Table 3a)) it was 98%. The “clinical score, collagen-induced arthritis” value in experiment [3] was “marked prevention in clinical score”.

As to `CCOC(=O)C1CC1CN(CCCNC(=O)Nc1cccc(C)c1)CCc1ccccc1` (stereo not drawn) [Compound 138], the “Ca^2+ mobilization 6.25 µg/ml (inhibition %)” value on CCR-3 [4] is 56%. On CCR-3 [2], the “CCR-3 Transfectant Chemotaxis Assay 6.25 µg/ml (inhibition %)” value is recorded as 31%.

As for `O=C(O)CCCN(CCCNC(=O)Nc1ccc(Br)cc1)Cc1ccccc1` [Compound 67], in experiment [1], the “Cultured Eosinophil Chemotaxis assay 10.00 µM (inhibition %)” value is reported as 71%. In addition, at CCR-3 [2] (CCR3/U937 cells (Table 3a)), the “Chemotaxis Assay 10 µM (inhibition %)” value was 100%.

Turning to `CCN(CCCNC(=O)Nc1ccc(Br)cc1)CCc1ccc(Cl)cc1` [Compound 3, N-(4-Bromophenylcarbamoyl)-N'-[2-(4-chlorophenyl)ethyl]-N'-ethyl-1,3-diaminopropane], the inhibition at 10 µM (in experiment [1]; on CCR-3 [2] (CCR3/U937 cells (Table 3a))) was 100% throughout.

As for `O=C(NCCCN(Cc1ccc2c(c1)OCO2)C[C@@H]1CCCN1)Nc1ccc(Br)cc1` [Compound 128], at CCR-3 [4], the “Ca^2+ mobilization 6.25 µg/ml (inhibition %)” value is listed as 55%. Moreover, the “CCR-3 Transfectant Chemotaxis Assay 6.25 µg/ml (inhibition %)” value at CCR-3 [2] is 33%.

Regarding `O=C(NCCCN(Cc1ccc2c(c1)OCO2)C[C@@H]1CCCN1)Nc1ccccc1-c1ccccc1` [Compound 102], the “Ca^2+ mobilization 6.25 µg/ml (inhibition %)” value at CCR-3 [4] is on record as 63%. For the same compound, the “CCR-3 Transfectant Chemotaxis Assay 6.25 µg/ml (inhibition %)” value at CCR-3 [2] was 19%.

As to `CC(C)CN(CCCNC(=O)Nc1ccc(Br)cc1)C1CCCc2ccccc21` (stereo not drawn) [Compound 122], the “Ca^2+ mobilization 6.25 µg/ml (inhibition %)” value at CCR-3 [4] is given as 66%. Further, the “CCR-3 Transfectant Chemotaxis Assay 6.25 µg/ml (inhibition %)” value at CCR-3 [2] is reported as 92%.

For the compound `CCOC(=O)C1CC1CN(CCCNC(=O)Nc1cccc(Cl)c1)CCc1ccc(Cl)c(Cl)c1` (stereo not drawn) [Compound 155], the “Ca^2+ mobilization 6.25 µg/ml (inhibition %)” value on CCR-3 [4] is on record as 69%. The “CCR-3 Transfectant Chemotaxis Assay 6.25 µg/ml (inhibition %)” value on CCR-3 [2] was 56%.

As to `O=C(NCCCN(CCc1ccccc1)CCc1c[nH]cn1)Nc1ccc(Br)cc1` [Compound 120], the “Ca^2+ mobilization 6.25 µg/ml (inhibition %)” value at CCR-3 [4] came to 57%. On CCR-3 [2], the “CCR-3 Transfectant Chemotaxis Assay 6.25 µg/ml (inhibition %)” value is 34%.

In the case of `Cc1cccc(NC(=O)NCCCN(C[C@@H]2CCCN2)C2CCCc3ccccc32)c1` (stereo partly drawn) [Compound 135], at CCR-3 [4], the “Ca^2+ mobilization 6.25 µg/ml (inhibition %)” value was found to be 57%. Moreover, the “CCR-3 Transfectant Chemotaxis Assay 6.25 µg/ml (inhibition %)” value at CCR-3 [2] was found to be 12%.

With `COC(=O)CCCN(CCCNC(=O)Nc1ccc(Br)cc1)Cc1ccco1` [Compound 38], the “Cultured Eosinophil Chemotaxis assay 10.00 µM (inhibition %)” value in experiment [1] is listed as 11%. Also, the “Chemotaxis Assay 10 µM (inhibition %)” value on CCR-3 [2] (CCR3/U937 cells (Table 3a)) turned out to be 46%.

In the case of `CCN(CCCNC(=O)Nc1cccc(C)c1)CCc1ccccc1` [Compound 137], on CCR-3 [4], the “Ca^2+ mobilization 6.25 µg/ml (inhibition %)” value is 50%. For the same compound, the “CCR-3 Transfectant Chemotaxis Assay 6.25 µg/ml (inhibition %)” value on CCR-3 [2] came out at 40%.

Take `CCOC(=O)C1CC1CN(CCCNC(=O)Nc1ccc(Br)cc1)C1CCCc2ccccc21` (stereo not drawn) [Compound 125]: the “Ca^2+ mobilization 6.25 µg/ml (inhibition %)” value at CCR-3 [4] was found to be 65%. Also, at CCR-3 [2], the “CCR-3 Transfectant Chemotaxis Assay 6.25 µg/ml (inhibition %)” value was determined as 90%.

Consider `O=C(O)CCCN(CCCNC(=O)Nc1ccc(Br)cc1)CCc1ccc(Cl)c(Cl)c1` [Compound 133], for which the “Ca^2+ mobilization 6.25 µg/ml (inhibition %)” value at CCR-3 [4] was 63%. In addition, the “CCR-3 Transfectant Chemotaxis Assay 6.25 µg/ml (inhibition %)” value on CCR-3 [2] worked out at 21%.

In the case of `CC(C)CN(CCCNC(=O)Nc1ccc(Br)cc1)Cc1ccc2c(c1)OCO2` [Compound 126], the “Ca^2+ mobilization 6.25 µg/ml (inhibition %)” value on CCR-3 [4] is 54%. The “CCR-3 Transfectant Chemotaxis Assay 6.25 µg/ml (inhibition %)” value on CCR-3 [2] worked out at 54%.

Regarding `CC(C)CN(CCCNC(=O)Nc1ccc(Br)cc1)CCc1c[nH]cn1` [Compound 118], at CCR-3 [4], the “Ca^2+ mobilization 6.25 µg/ml (inhibition %)” value is reported as 58%. In addition, the “CCR-3 Transfectant Chemotaxis Assay 6.25 µg/ml (inhibition %)” value on CCR-3 [2] is listed as 62%.

Consider `COc1cc(CN(CCCNC(=O)Nc2ccc(Br)cc2)CCCC(=O)O)cc(OC)c1OC` [Compound 66], for which, in experiment [1], the “Cultured Eosinophil Chemotaxis assay 10.00 µM (inhibition %)” value is 44%. Further, the “Chemotaxis Assay 10 µM (inhibition %)” value on CCR-3 [2] (CCR3/U937 cells (Table 3a)) is on record as 32%.
